In US7659249B2, “Membrane-permeable NFAT inhibitory peptide” (Japan Science and Technology Agency, priority 2002, dated 2010):
Residues, ends and D or L forms follow the SMILES beside them.

Columns and labels:
[1] = tested on: IL-2 gene (transcription); test: half-life in T cells based on inhibitory activity to IL-2 transcription (time course in Jurkat cells); details: human
Procedure: Subsequently, 100 μl of RPMI containing 2 μM of PMA and 40 μM of ionomycin was added and culture was conducted further for 12 hours, 17 hours, 23 hours, 35 hours or 59 hours.
Subsequently, the relative RNA amount to GAPDH was measured by conducting RT-PCR and real-time quantitative RT-PCR and analysis in the same manner as in Example 3, except that the respective obtained cells were used as samples. The time shown in FIG. 2 refers to the total culture time.
Using 1 ml of 10% fetal bovine serum-containing RPMI containing 1 μM of FK 506, 1×10^5 Jurkat cells were cultured for 1 hour in a carbon dioxide culture device set to 37° C. and carbon dioxide concentration of 5%. Subsequently, 100 μl of RPMI containing 2 μM of PMA and 40 μM of ionomycin was added and culture was conducted further for 12 hours, 17 hours, 23 hours, 35 hours or 59 hours. Thereafter, RT-PCR and real-time quantitative RT-PCR were conducted in the same manner as in Example 3, except that the obtained culture cells were used.

[2] = tested on: IL-2 gene; test: transcription of IL-2 gene in Jurkat cells stimulated with PMA and ionomycin, real-time quantitative RT-PCR; type: cell-based, human; details: 1 μM 11R-VEET
Procedure: Subsequently, 100 μl of RPMI containing 2 μM of phorbol 12-myristate 13-acetate (PMA) (available from Sigma-Aldrich Co.) and 40 μM of ionomycin (available from Sigma-Aldrich Co.) was added and culture was continued for 12 more hours. Then, the cells were recovered and using the obtained cells, the transcription amount of IL-2 gene was measured by the following real-time quantitative RT-PCR. In real-time quantitative RT-PCR, GAPDH, which is known as a housekeeping gene, was used as the inner standard substance.
RNeasy Mini Kit (available from QIAGEN K.K.) was used according to protocol and total RNA was extracted from the cells. Using the obtained total RNA, reverse transcription reaction was conducted by incubation at 22° C. for 10 minutes and then at 42° C. for 20 minutes.
Thereafter, using Light Cycler-Fast Start DNA Master SYBR Green I Kit (available from Roche Molecular Biochemicals), 20 μl of a mixed reaction solution ( 1/10 of the amount of the transcription product, 4 mM of MgCl2, 4 kinds of primers: 0.5 μM respectively, 2 μl of 10×Light Cycler-Fast Start DNA Master SYBR Green I) was prepared for amplification reaction. As the primer for human IL-2, the primer included in Competitive Quantitative RT-PCR Kit (available from Funakoshi Co., Ltd.) was used. […]

[3] = tested on: lymphocytes; test: mixed lymphocyte test, [3H]TdR incorporation; type: cell-based, mouse; details: 1 μM 11R-VEET
Procedure: Spleen cells were retrieved from a 6 to 8 week old C3H/HeN mouse and a 6 to 8 week old BALB/c mouse H-2d (available from Shimizu Laboratory Supplies Co., Ltd.). The BALB/c spleen cells were treated with mitomycin C (available from Kyowa Hakko Kogyo Co., Ltd.) and used as stimulating cells.
Subsequently, 5×10^5 of mixed cells obtained by mixing the above stimulating cells and the spleen cells derived from a C3H/HeN mouse in a ratio of 1:5 were added in each well and cultured for 90 hours in a carbon dioxide culture device set to 37° C. and carbon dioxide concentration of 5%. As control, the mixed cells were added to wells containing only a medium and cultured in the same manner.
Then, ^3H-methyl-thymidine (hereinafter referred to as [^3H]TdR, available from Amersham Pharmacia Biotech K.K.) of 0.5 μCi/well was added and culture was conducted for 6 hours. Thereafter, the cells were placed on filter paper having a diameter of 1 cm and the radioactivity of [^3H]TdR incorporated into the cells was measured by a beta counter (made by Beckman Coulter K.K.).

[4] = tested on: lymphocytes; test: mixed lymphocyte test using spleen cells from treated mouse, [3H]TdR incorporation; type: in vivo, C3H/HeN mouse; details: printed: 1 μM of 11R-VEET; method b87: 10 mg/kg intraperitoneal
Procedure: Thereafter, the cells were placed on filter paper having a diameter of 1 cm and the radioactivity of [^3H]TdR incorporated into the cells was measured by a beta counter.

[5] = tested on: transplanted beta cells; test: beta cell transplant in diabetic model mouse, survival of transplant by Kaplan-Meier; type: in vivo; details: 10 mg/kg intraperitoneally once a day after transplant, BALB/c donor, C3H/HeN diabetic recipient
Procedure: For the transplant, a 6 week old BALB/c mouse was used as the donor and a 6 week old C3H/HeN mouse was used as the recipient.
A diabetic model mouse was prepared by intraperitoneally injecting 220 mg/kg of streptozocin (available from Sigma-Aldrich Japan K.K.) to a C3H/HeN mouse. 6 days after the streptozocin injection, the mouse in which the glucose level exceeded 350 mg/dl was determined as being hyperglycemic.
Meanwhile, the spleen of the BALB/c mouse was taken out and after subjecting to discontinuous Ficoll density gradient centrifugation, beta cells were isolated by normal collagenase digestion.
About 500 of the isolated beta cells were transplanted under the capusula of the left kidney of the above diabetic model mouse. […] The glycemia was measured and when the level thereof exceeded 200 mg/dl for 2 consecutive days, transplant rejection was considered to have occurred.

[6] = tested on: βTC6 cells; test: insulin secretion of βTC6 cells (Mouse Insulin ELISA); type: cell-based; details: 11R-VEET 10, 100, 1000 or 10000 nM, 96 hours
Procedure: The medium was replaced with a fresh medium containing […] every 24 hours. After 96 hours, the medium was replaced with a fresh medium. Culture was conducted for 1 more hour and the culture supernatant was collected. For control, βTC6 cells were cultured in the same manner, except that a medium without […] was used. Subsequently, using the collected supernatant, the secreted insulin was analyzed using Mouse Insulin ELISA (TMB) Kit (available from Shibayagi Co., Ltd.) according to protocol.

[7] = tested on: βTC6 cells; test: proliferation of βTC6 cells, [3H]TdR incorporation; type: cell-based; details: 11R-VEET 10, 100, 1000 or 10000 nM
Procedure: The medium was replaced with a fresh medium containing […] every 24 hours. Subsequently, [^3H]TdR of 1 μCi/well was added and culture was conducted for 8 more hours. For control, βTC6 cells were cultured in the same manner except that a medium without […] was used. Thereafter, the cells were placed on filter paper having a diameter of 1 cm and the radioactivity of [^3H]TdR incorporated into the cells was measured by a beta counter.

## CC[C@H](C)[C@H](NC(=O)[C@@H](NC(=O)[C@@H]1CCCN1C(=O)[C@H](Cc1c[nH]cn1)NC(=O)[C@@H]1CCCN1C(=O)CNC(=O)[C@H](C)NC(=O)[C@H](CCSC)NC(=O)CNC(=O)CNC(=O)CNC(=O)[C@H](CCCNC(=N)N)NC(=O)[C@H](CCCNC(=N)N)NC(=O)[C@H](CCCNC(=N)N)NC(=O)[C@H](CCCNC(=N)N)NC(=O)[C@H](CCCNC(=N)N)NC(=O)[C@H](CCCNC(=N)N)NC(=O)[C@H](CCCNC(=N)N)NC(=O)[C@H](CCCNC(=N)N)NC(=O)[C@H](CCCNC(=N)N)NC(=O)[C@H](CCCNC(=N)N)NC(=O)[C@@H](N)CCCNC(=N)N)C(C)C)C(=O)N[C@H](C(=O)N[C@H](C(=O)N[C@H](C(=O)NCC(=O)N1CCC[C@H]1C(=O)N[C@@H](Cc1c[nH]cn1)C(=O)N[C@@H](CCC(=O)O)C(=O)N[C@@H](CCC(=O)O)C(=O)O)[C@@H](C)O)[C@@H](C)CC)C(C)C [11R-VIVIT] (H-RRRRRRRRRRRGGGMAGPHPVIVITGPHEE-OH; N-terminus and C-terminus assumed)
[1]
  half-life at 1 μM: ~30 h

## 11R-VEET: peptide comprising 11 consecutive arginine residues and VEET (MAGPPHIVEETGPHVI) with 3 glycine residues; SEQ ID NO. 4; negative control (RRRRRRRRRRRGGGMAGPPHIVEETGPHVI)
[2]
  effect on transcription level of IL-2 gene: did not affect
[3]
  effect on proliferation of lymphocytes: not affected
[4]
  effect on proliferation of lymphocytes (cells from treated mouse): not affected
[5]
  survival rate of transplanted beta cells compared to control: did not affect
[6]
  insulin secretion amount of βTC6 cells: unaffected
[7]
  inhibitory effect to proliferation of βTC6 cells: did not exhibit an inhibitory effect
